The source of these data is patent US7470690B2, “4-(2-Fluorophenyl)-6-methyl-2-(1-piperazinyl)thieno[2,3-D)pyrimidine in the treatment of functional bowel disorder” (Dynogen Pharmaceuticals, Inc., priority 2002, dated 2008).

The test system of the assay is male Sprague-Dawley rats. The assay can be described thus: Inhibition of the reflex depressor response to colorectal distension in anaesthetised rats. The assay is classed as in vivo, rat. To be noted: for Fall in arterial blood pressure (mean absolute decrease in mean arterial pressure, standard error of mean in brackets) evoked by distension of the balloon: following MCI-225 3 mg/kg i.v. From the text: The data on which this invention is based will now be described. In a study using intact animals, the ability of a drug to inhibit the reflex depressor response to colorectal distension can be assessed. In this model, an inhibition of the reflex indicates modulation of visceral nociceptive neurotransmission and, therefore, the use of the drug in functional bowel disease (e.g. IBS); see Kozlowski et al, 2000, Gut 46, 474-480. Allodynia and visceral pain are important components of functional bowel disease.
Experiments were performed on male Sprague-Dawley rats (250-300 g). Anaesthesia was induced with isoflurane (2.5% in oxygen) and maintained with alpha chlorolose (80 mg/kg i.v.). The left carotid artery was cannulated for the measurement of blood pressure and heart rate and the left jugular vein cannulated for drug administration. A tracheal cannula was implanted for artificial respiration if required. A 10 mm long latex balloon was inserted intrarectally so that the tip of the balloon was 20 mm from the anal verge (Kozlowski et al, supra). The balloon was connected via a double lumen cannula to a pressure transducer and also to a saline-filled syringe for inflation/deflation of the balloon. Throughout the experiment, body temperature was kept constant at 36-38 C using a homeothermic blanket.
Once stable baseline parameters were obtained (approximately after 20 minutes), the balloon was rapidly inflated with increasing volumes of saline (0.5-2.5 ml) for 30 seconds at 5 minute intervals, and the resultant change in blood pressure recorded. Three distinct response curves were constructed, with a 10 minute stabilisation period between each curve. In one group of animals, 10 minutes prior to the commencement of the final distension response curve, a single bolus of MCI-225 (3 mg/kg) was administered intravenously; in a second group of animals, a single bolus dose of vehicle was administered. The effect of MCI-225 and vehicle was determined by analysing the changes in colorectal distension that evoked depressor response.

On to `Cc1cc2c(-c3ccccc3F)nc(N3CCNCC3)nc2s1.Cl.O` [MCI-225, 4-(2-Fluorophenyl)-6-methyl-2-(1-piperazinyl)thieno[2,3-D]pyrimidine monohydrate hydrochloride], for which the “Effect on distension-induced falls in blood pressure (in words)” value (3 mg/kg i.v., colorectal balloon distension) is recorded as “inhibited the distension-induced falls in blood pressure”. In addition, the “Fall in arterial blood pressure (mean absolute decrease in mean arterial pressure, standard error of mean in brackets) evoked by distension of the balloon” value is, setting by setting: (0.5 ml balloon volume, n=6) 2.2 (1.65) mmHg; (1.0 ml balloon volume, n=6) 6.3 (2.6) mmHg; (1.5 ml balloon volume, n=6) 10.6 (3.9) mmHg; (2.0 ml balloon volume, n=6, p less than 0.01 vs before drug (paired t test)) 15.3 (5.4) mmHg; (2.5 ml balloon volume, n=5, p less than 0.05 vs before drug (paired t test)) 24.6 (7.3) mmHg.
